Active and inactive are the calls of the source. The calls are words filed in the database; no cut-off is given here.
How the values were obtained:
Reovirus sp. = experiment: Antiviral activity against reovirus; format: functional, organism-based
[1] = Cytotoxicity against human CEM cells assessed as inhibition of cell proliferation; format: cell-based; conditions: CEM cells (CCRF-CEM)
[2] = test system: Human immunodeficiency virus 1; experiment: Antiviral activity against HIV1 3B infected in human CEM cells assessed as reduction in virus-induced cytopathicity after 4 to 5 days by microscopy based syncytium cell formation assay; format: functional, organism-based, CCRF-CEM; conditions: Human immunodeficiency virus 1, 3B, CCRF-CEM; read-out: EC50
Hepatitis C virus = experiment: Antiviral activity against HCV genotype 1b I389luc-ubi-neo/NS3-3'/5.1 replicons infected in human Huh5-2 HCV subgenomic replicon-containing cells assessed as reduction in virus replication after 3 days by luciferase reporter gene assay; format: functional, Hepacivirus hominis; conditions: Hepatitis C virus, genotype 1b, Huh-5-2, 72 h; for EC50: read-out: EC50
Sindbis virus = experiment: Antiviral activity against sindbis virus; format: functional, organism-based
[3] = test system: Vesicular stomatitis virus; experiment: Antiviral activity against vesicular stomatitis virus; format: functional, organism-based
[4] = test system: Human immunodeficiency virus 2; experiment: Antiviral activity against HIV2 ROD infected in human CEM cells assessed as reduction in virus-induced cytopathicity after 4 to 5 days by microscopy based syncytium cell formation assay; format: functional, organism-based, ISOLATE ROD, CCRF-CEM; conditions: Human immunodeficiency virus 2, ISOLATE ROD, CCRF-CEM; read-out: EC50
[5] = Cytotoxicity against human Huh5-2 cells after 72 hrs by MTS assay; format: cell-based, Huh-5-2
Vaccinia virus = experiment: Antiviral activity against vaccinia virus; format: functional, organism-based; conditions: Orthopoxvirus vaccinia
Punta Toro virus = experiment: Antiviral activity against punta toro virus; format: functional, organism-based
Influenza A virus = experiment: Antiviral activity against influenza A virus (H1N1); format: functional, organism-based
Chikungunya virus = experiment: Antiviral activity against chikungunya virus; format: functional
Felid alphaherpesvirus 1 = experiment: Antiviral activity against feline herpesvirus; format: functional, organism-based
Coxsackievirus B4 = experiment: Antiviral activity against human coxsackievirus B4; format: functional, organism-based
Influenza A virus H3N2 = experiment: Antiviral activity against influenza A virus H3N2; format: functional, organism-based
[6] = test system: Respiratory syncytial virus; experiment: Antiviral activity against RSV; format: functional, organism-based
Feline coronavirus = experiment: Antiviral activity against feline coronavirus; format: functional, organism-based
[7] = Selectivity index, ratio of CC50 for human CEM cells to EC50 for HIV1 3B; format: toxicity, cell-based, CCRF-CEM; conditions: read-out: Ratio CC50/EC50
Human respirovirus 3 = experiment: Antiviral activity against human parainfluenza virus 3; format: functional, organism-based

Compound	Activity (Reovirus sp.)	CC50 [1]	EC50 [2]	EC90 (Hepatitis C virus)	EC50 (Hepatitis C virus)	Activity (Sindbis virus)	Activity [3]	EC50 [4]	CC50 at 72 h [5]	Activity (Vaccinia virus)	Activity (Punta Toro virus)	Activity (Influenza A virus)	Activity (Chikungunya virus)	Activity (Felid alphaherpesvirus 1)	Activity (Coxsackievirus B4)	Activity (Influenza A virus H3N2)	Activity [6]	Activity (Feline coronavirus)	selectivity ratio [7]	Activity (Human respirovirus 3)
O=C(NCCN(CCNC(=O)c1ccc(O)c(O)c1O)CCNC(=O)c1ccc(O)c(O)c1O)c1ccc(O)c(O)c1O	inactive	28 µM	2.5 µM	> 5.5 µM	> 5.5 µM	inactive	inactive	> 10 µM	> 3.7 µM	inactive	inactive	inactive	inactive	inactive	inactive	inactive	inactive	inactive	10	inactive
O=C(OCCCCCCOC(=O)c1cc(O)c(O)c(O)c1)c1cc(O)c(O)c(O)c1	inactive	22 µM	≥ 10 µM	–	16 µM	inactive	inactive	≥ 10 µM	> 50 µM	inactive	inactive	inactive	inactive	inactive	inactive	inactive	inactive	inactive	–	inactive
CCOC(=O)c1cc(O)c(O)c(O)c1 [ETHYLGALLATE]	inactive	23 µM	> 10 µM	> 45 µM	19 µM	inactive	inactive	> 10 µM	45 µM	inactive	inactive	inactive	inactive	inactive	inactive	inactive	inactive	inactive	–	inactive
O=C(NCCCCCCCCCCCCNC(=O)c1cccc(O)c1O)c1cccc(O)c1O	inactive	4.8 µM	> 2 µM	4.8 µM	2 µM	inactive	inactive	> 2 µM	108 µM	inactive	inactive	inactive	inactive	inactive	inactive	inactive	inactive	inactive	–	inactive
O=C(NCCCCCCCCCCNC(=O)c1cc(O)c(O)c(O)c1)c1cc(O)c(O)c(O)c1	inactive	86 µM	> 50 µM	–	20 µM	inactive	inactive	> 50 µM	47 µM	inactive	inactive	inactive	inactive	inactive	inactive	inactive	inactive	inactive	–	inactive
O=C(OCCCCCCCCOC(=O)c1cc(O)c(O)c(O)c1)c1cc(O)c(O)c(O)c1	inactive	13 µM	> 10 µM	55 µM	17 µM	inactive	inactive	> 10 µM	80 µM	inactive	inactive	inactive	inactive	inactive	inactive	inactive	inactive	inactive	–	inactive
O=C(NCCCCCCCCCCCCNC(=O)c1ccccc1O)c1ccccc1O	inactive	248 µM	> 250 µM	> 6.7 µM	4.7 µM	inactive	inactive	> 250 µM	> 6.7 µM	inactive	inactive	inactive	inactive	inactive	inactive	inactive	inactive	inactive	–	inactive
O=C(NCCCCCCCCCCCCNC(=O)c1cc(O)c(O)c(O)c1)c1cc(O)c(O)c(O)c1	inactive	58 µM	19 µM	> 100 µM	27 µM	inactive	inactive	26 µM	> 100 µM	inactive	inactive	inactive	inactive	inactive	inactive	inactive	inactive	inactive	–	inactive
CCCCCOC(=O)c1cc(O)c(O)c(O)c1 [PENTYL GALLATE]	inactive	47 µM	14 µM	> 50 µM	14 µM	inactive	inactive	≥ 10 µM	> 50 µM	inactive	inactive	inactive	inactive	inactive	inactive	inactive	inactive	inactive	–	inactive
O=C(OCCCCOC(=O)c1cc(O)c(O)c(O)c1)c1cc(O)c(O)c(O)c1	inactive	21 µM	> 10 µM	> 50 µM	39 µM	inactive	inactive	> 10 µM	> 50 µM	inactive	inactive	inactive	inactive	inactive	inactive	inactive	inactive	inactive	–	inactive
O=C(NCCCCCCCCCCNC(=O)c1ccc(O)c(O)c1O)c1ccc(O)c(O)c1O	inactive	100 µM	> 50 µM	–	11 µM	inactive	inactive	> 50 µM	> 100 µM	inactive	inactive	inactive	inactive	inactive	inactive	inactive	inactive	inactive	–	inactive
O=C(NCCCOCCOCCOCCCNC(=O)c1ccc(O)c(O)c1O)c1ccc(O)c(O)c1O	inactive	81 µM	> 50 µM	–	28 µM	inactive	inactive	> 50 µM	49 µM	inactive	inactive	inactive	inactive	inactive	inactive	inactive	inactive	inactive	–	inactive
O=C(NCCCCN(CCCNC(=O)c1cc(O)c(O)c(O)c1)C(=O)c1cc(O)c(O)c(O)c1)c1cc(O)c(O)c(O)c1	inactive	107 µM	18 µM	–	–	inactive	inactive	–	–	inactive	inactive	inactive	inactive	inactive	inactive	inactive	inactive	inactive	6	inactive
O=C(NCCCCCCNC(=O)c1cc(O)c(O)c(O)c1)c1cc(O)c(O)c(O)c1	inactive	72 µM	> 10 µM	> 24 µM	11 µM	inactive	inactive	> 10 µM	24 µM	inactive	inactive	inactive	inactive	inactive	inactive	inactive	inactive	inactive	–	inactive
